This note sets out measurements from ChEMBL document CHEMBL4219130, “Two new lathyrane-type diterpenoid glycosides with IL-6 production inhibitory activity from the roots of Euphorbia kansui” (Bioorg Med Chem Lett, 2018).

Holding throughout (format): functional, cell-based
Assay [1] deals with HMC1. In words: Antiinflammatory activity in human HMC1 cells assessed as reduction in PMA/ionophore A23187-induced IL-6 production.
The subject of assay [2] is HMC1. The assay can be described thus: Antiinflammatory activity in human HMC1 cells assessed as reduction in PMA/ionophore A23187-induced TNFalpha mRNA expression at 0.8 to 20 uM pretreated for 30 mins followed by PMA/ionophore challenge measured after 24 hrs by real-time PCR analysis. Background: Real-time PCR tracks product formation cycle by cycle.
In assay [3] the test system is HMC1. The assay can be described thus: Antiinflammatory activity in human HMC1 cells assessed as reduction in PMA/ionophore A23187-induced IL-6 mRNA expression at 0.8 to 20 uM pretreated for 30 mins followed by PMA/ionophore challenge measured after 24 hrs by real-time PCR analysis.
Assay [4] relates to HMC1. The assay can be described thus: Antiinflammatory activity in human HMC1 cells assessed as reduction in PMA/ionophore A23187-induced IL-1beta mRNA expression at 0.8 to 20 uM pretreated for 30 mins followed by PMA/ionophore challenge measured after 24 hrs by real-time PCR analysis.

By IC50 is commonly meant the concentration needed to halve the response being measured.

The source made the active and inactive calls. The calls are words filed in the database; no cut-off is given here.

As to `C/C1=C\C2=C(C[C@H](C)C2=O)[C@@H](O)[C@H](C)C[C@@H]2[C@H](C[C@H]1O)[C@@]2(C)CO[C@@H]1O[C@H](CO)[C@@H](O)[C@H](O)[C@H]1O`, the IC50 with HMC1 [1] was found to be 1940 nM.
For `C/C1=C\C2=C(C[C@H](C)C2=O)[C@@H](O[C@@H]2O[C@H](CO)[C@@H](O)[C@H](O)[C@H]2O)[C@H](C)C[C@@H]2[C@H](C[C@H]1O)[C@@]2(C)CO`, the result with HMC1 [2], in the assay on HMC1 [3] and with HMC1 [4] was Active. In the assay on HMC1 [1], the IC50 was 2960 nM.
